Laboratory results as given in ChEMBL document CHEMBL5634136 (Eur J Med Chem, 2023).
Values belong to the compound of their own block, whether it stands above or below them. Active and inactive are the calls of the source. The rule behind the calls is not given here.

Experiments:
[1] = biological target: Epidermal growth factor receptor (Mus musculus) (UniProt Q01279); assay: Inhibition of EGFR in mouse KC-0116 cells assessed as downregulation of EGFR phosphorylation level at 1 uM incubated for 24 hrs by Western blotting analysis; type: cell-based
Sequence of Epidermal growth factor receptor (Mus musculus) (Q01279 whole entry): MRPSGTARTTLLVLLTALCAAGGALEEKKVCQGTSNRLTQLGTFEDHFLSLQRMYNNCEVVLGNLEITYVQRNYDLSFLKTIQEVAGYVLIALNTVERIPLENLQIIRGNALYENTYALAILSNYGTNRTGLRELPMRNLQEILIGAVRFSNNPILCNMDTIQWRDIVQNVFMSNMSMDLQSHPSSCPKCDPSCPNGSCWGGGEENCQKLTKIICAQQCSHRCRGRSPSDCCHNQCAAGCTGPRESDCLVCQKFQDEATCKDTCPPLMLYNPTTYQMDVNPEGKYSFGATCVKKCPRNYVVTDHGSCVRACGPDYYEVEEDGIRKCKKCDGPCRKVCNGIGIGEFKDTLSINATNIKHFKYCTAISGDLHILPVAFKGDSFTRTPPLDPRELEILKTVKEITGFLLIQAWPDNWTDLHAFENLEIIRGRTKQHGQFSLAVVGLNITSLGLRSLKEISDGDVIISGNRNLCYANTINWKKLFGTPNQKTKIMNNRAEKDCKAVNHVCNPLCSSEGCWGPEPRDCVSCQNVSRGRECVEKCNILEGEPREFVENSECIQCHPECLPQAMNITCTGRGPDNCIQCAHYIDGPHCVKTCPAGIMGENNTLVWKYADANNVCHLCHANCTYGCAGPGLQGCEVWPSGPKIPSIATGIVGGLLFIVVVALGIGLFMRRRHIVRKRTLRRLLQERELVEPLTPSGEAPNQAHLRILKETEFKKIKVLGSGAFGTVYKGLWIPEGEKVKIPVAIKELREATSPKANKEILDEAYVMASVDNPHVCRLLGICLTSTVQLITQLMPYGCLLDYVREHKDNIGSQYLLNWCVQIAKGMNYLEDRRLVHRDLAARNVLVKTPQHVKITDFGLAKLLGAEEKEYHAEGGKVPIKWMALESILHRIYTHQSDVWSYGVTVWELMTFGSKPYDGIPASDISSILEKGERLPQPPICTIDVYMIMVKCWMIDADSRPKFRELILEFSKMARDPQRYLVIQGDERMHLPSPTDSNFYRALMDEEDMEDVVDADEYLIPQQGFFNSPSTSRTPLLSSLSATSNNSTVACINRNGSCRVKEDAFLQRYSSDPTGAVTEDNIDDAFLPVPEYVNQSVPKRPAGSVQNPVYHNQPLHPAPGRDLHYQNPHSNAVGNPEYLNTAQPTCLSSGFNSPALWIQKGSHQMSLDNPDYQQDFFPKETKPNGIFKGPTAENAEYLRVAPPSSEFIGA

[2] = Antiproliferative activity against mouse KC-0116 cells assessed as inhibition of cell growth incubated for 72 hrs by MTT assay; type: functional, cell-based; conditions: KC-0116, 72 h
[3] = Induction of apoptosis in mouse KC-0116 cells assessed as late apoptotic cells at 0.1 uM incubated for 48 hrs by annexin V-FITC/ PI staining based flow cytometry (reference value: 1 %); type: functional
[4] = Induction of apoptosis in mouse KC-0116 cells assessed as early apoptotic cells at 10 uM incubated for 48 hrs by annexin V-FITC/ PI staining based flow cytometry (reference value: 8.09 %); type: functional
[5] = Induction of apoptosis in mouse KC-0116 cells assessed as late apoptotic cells at 1 uM incubated for 48 hrs by annexin V-FITC/ PI staining based flow cytometry (reference value: 1 %); type: functional
[6] = Induction of apoptosis in mouse KC-0116 cells assessed as necrotic cells at 0.1 uM incubated for 48 hrs by annexin V-FITC/ PI staining based flow cytometry (reference value: 0.04 %); type: functional
[7] = Induction of apoptosis in mouse KC-0116 cells assessed as necrotic cells at 10 uM incubated for 48 hrs by annexin V-FITC/ PI staining based flow cytometry (reference value: 0.04 %); type: functional
[8] = Induction of apoptosis in mouse KC-0116 cells assessed as viable cells at 1 uM incubated for 48 hrs by annexin V-FITC/ PI staining based flow cytometry (reference value: 93.27 %); type: functional; conditions: Mus musculus, KC-0116, read-out: Activity
[9] = Induction of apoptosis in mouse KC-0116 cells assessed as necrotic cells at 1 uM incubated for 48 hrs by annexin V-FITC/ PI staining based flow cytometry (reference value: 0.04 %); type: functional
KC-0116 [10] = assay: Antitumor activity against mouse KC-0116 cells xenografted in BALB/c mouse assessed as reduction in tumor weight at 40 mg/kg,po administrated once daily for 10 days; type: functional, organism-based; conditions: time 10.0 day
[11] = biological target: Epidermal growth factor receptor (Homo sapiens, UniProt P00533, C797S/L858R/T790M); assay: Inhibition of EGFR L858R/T790M/C797S mutant (unknown origin)
Sequence of Epidermal growth factor receptor (Homo sapiens, UniProt P00533, C797S/L858R/T790M) (P00533 25-1210 T790M/C797S/L858R limits assumed): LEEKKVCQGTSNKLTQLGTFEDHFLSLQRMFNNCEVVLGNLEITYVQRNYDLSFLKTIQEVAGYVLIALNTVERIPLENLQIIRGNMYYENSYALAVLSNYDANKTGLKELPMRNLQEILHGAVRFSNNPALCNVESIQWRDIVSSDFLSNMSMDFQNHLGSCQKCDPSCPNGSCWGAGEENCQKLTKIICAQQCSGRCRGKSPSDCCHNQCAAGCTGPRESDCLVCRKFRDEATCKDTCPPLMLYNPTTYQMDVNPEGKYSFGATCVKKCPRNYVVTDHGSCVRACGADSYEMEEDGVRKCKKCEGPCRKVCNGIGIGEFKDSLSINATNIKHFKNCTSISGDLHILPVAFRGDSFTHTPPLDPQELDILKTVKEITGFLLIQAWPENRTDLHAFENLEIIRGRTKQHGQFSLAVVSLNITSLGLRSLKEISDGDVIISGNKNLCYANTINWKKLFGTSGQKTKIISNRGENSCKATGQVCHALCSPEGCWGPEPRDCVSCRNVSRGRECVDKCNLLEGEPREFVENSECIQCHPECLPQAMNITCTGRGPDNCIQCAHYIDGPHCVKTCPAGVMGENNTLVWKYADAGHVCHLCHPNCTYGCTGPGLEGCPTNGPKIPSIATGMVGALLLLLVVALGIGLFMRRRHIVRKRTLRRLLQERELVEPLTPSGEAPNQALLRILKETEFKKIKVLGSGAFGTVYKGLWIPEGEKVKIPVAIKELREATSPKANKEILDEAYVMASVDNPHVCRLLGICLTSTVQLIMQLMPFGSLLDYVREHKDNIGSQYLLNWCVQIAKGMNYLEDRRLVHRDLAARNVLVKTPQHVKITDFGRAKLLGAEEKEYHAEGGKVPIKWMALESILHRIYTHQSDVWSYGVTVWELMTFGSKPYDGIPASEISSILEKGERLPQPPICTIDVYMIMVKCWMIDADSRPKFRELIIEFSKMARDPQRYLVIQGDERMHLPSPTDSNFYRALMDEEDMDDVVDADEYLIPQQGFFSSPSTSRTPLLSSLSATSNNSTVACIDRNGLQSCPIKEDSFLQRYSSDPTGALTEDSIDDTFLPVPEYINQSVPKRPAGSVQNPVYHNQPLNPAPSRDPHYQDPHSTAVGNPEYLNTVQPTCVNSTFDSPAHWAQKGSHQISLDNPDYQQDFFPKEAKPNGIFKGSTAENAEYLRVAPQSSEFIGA

[12] = Induction of apoptosis in mouse KC-0116 cells assessed as viable cells at 10 uM incubated for 48 hrs by annexin V-FITC/ PI staining based flow cytometry (reference value: 93.27 %); type: functional; conditions: read-out: Activity
HepG2 = assay: Antiproliferative activity against human HepG2 cells harboring VEGFR assessed as inhibition of cell growth incubated for 72 hrs by MTT assay; type: functional, cell-based; conditions: HepG2, 72 h
[13] = biological target: Epidermal growth factor receptor (Mus musculus) (UniProt Q01279); assay: Inhibition of EGFR in mouse KC-0122 cells assessed as downregulation of ERK protein expression level incubated for 24 hrs by Western blotting analysis; type: cell-based
KC-0116 [14] = assay: Induction of cell cycle arrest in mouse KC-0116 cells assessed as accumulation of cells at G1 phase at 1 uM incubated for 24 hrs by RNase/PI staining based flow cytometry; type: functional
[15] = Induction of apoptosis in mouse KC-0116 cells assessed as early apoptotic cells at 0.1 uM incubated for 48 hrs by annexin V-FITC/ PI staining based flow cytometry (reference value: 8.09 %); type: functional
[16] = biological target: Epidermal growth factor receptor (Mus musculus) (UniProt Q01279); assay: Inhibition of EGFR in mouse KC-0116 cells assessed as downregulation of EGFR phosphorylation level incubated for 24 hrs by Western blotting analysis; type: cell-based
[17] = biological target: Epidermal growth factor receptor (Mus musculus) (UniProt Q01279); assay: Inhibition of EGFR in mouse KC-0122 cells assessed as downregulation of EGFR phosphorylation level at 1 uM incubated for 24 hrs by Western blotting analysis; type: cell-based
HCC827 = assay: Antiproliferative activity against human HCC827 cells harboring EGFR Del19 mutant assessed as inhibition of cell growth incubated for 72 hrs by MTT assay; type: functional, cell-based; conditions: HCC827, 72 h
[18] = Antitumor activity against mouse KC-0116 cells xenografted in BALB/c mouse assessed as tumor growth inhibition at 10 mg/kg,po administrated once daily for 10 days relative to control; type: functional; conditions: KC-0116, 240 h, time 10 day, read-out: TGI
A-431 = assay: Antiproliferative activity against human A-431 cells harboring wild type EGFR assessed as inhibition of cell growth incubated for 72 hrs by MTT assay; type: functional, cell-based; conditions: A-431, 72 h
[19] = biological target: Epidermal growth factor receptor (Mus musculus) (UniProt Q01279); assay: Inhibition of EGFR in mouse KC-0116 cells assessed as downregulation of ERK protein expression level incubated for 24 hrs by Western blotting analysis; type: cell-based
[20] = Induction of apoptosis in mouse KC-0116 cells assessed as late apoptotic cells at 10 uM incubated for 48 hrs by annexin V-FITC/ PI staining based flow cytometry (reference value: 1 %); type: functional
[21] = Induction of apoptosis in mouse KC-0116 cells assessed as viable cells at 0.1 uM incubated for 48 hrs by annexin V-FITC/ PI staining based flow cytometry (reference value: 93.27 %); type: functional; conditions: read-out: Activity
[22] = Antiproliferative activity against mouse KC-0122 cells assessed as inhibition of cell growth incubated for 72 hrs by MTT assay; type: functional, cell-based; conditions: KC-0122, 72 h
[23] = biological target: Epidermal growth factor receptor (Mus musculus) (UniProt Q01279); assay: Inhibition of EGFR in mouse KC-0116 cells assessed as downregulation of AKT protein expression level at 1 uM incubated for 24 hrs by Western blotting analysis; type: cell-based
[24] = biological target: Epidermal growth factor receptor (Mus musculus) (UniProt Q01279); assay: Inhibition of EGFR in mouse KC-0122 cells assessed as downregulation of EGFR phosphorylation level incubated for 24 hrs by Western blotting analysis; type: cell-based
[25] = Antitumor activity against mouse KC-0116 cells xenografted in BALB/c mouse assessed as tumor growth inhibition at 40 mg/kg,po administrated once daily for 10 days relative to control; type: functional; conditions: KC-0116, 240 h, time 10 day, read-out: TGI
[26] = Toxicity in BALB/c mouse xenografted with mouse KC-0116 cells assessed as change in body weight at 40 mg/kg,po administrated once daily for 10 days; type: organism-based; conditions: in vivo, 240 h, time 10 day
[27] = biological target: T1, Epidermal growth factor receptor (Homo sapiens, UniProt P00533, C797S/EX19DEL/T790M); assay: Inhibition of EGFR Del19/T790M/C797S mutant (unknown origin)
T1 sequence (P00533 whole entry, looked up, stated change not applied): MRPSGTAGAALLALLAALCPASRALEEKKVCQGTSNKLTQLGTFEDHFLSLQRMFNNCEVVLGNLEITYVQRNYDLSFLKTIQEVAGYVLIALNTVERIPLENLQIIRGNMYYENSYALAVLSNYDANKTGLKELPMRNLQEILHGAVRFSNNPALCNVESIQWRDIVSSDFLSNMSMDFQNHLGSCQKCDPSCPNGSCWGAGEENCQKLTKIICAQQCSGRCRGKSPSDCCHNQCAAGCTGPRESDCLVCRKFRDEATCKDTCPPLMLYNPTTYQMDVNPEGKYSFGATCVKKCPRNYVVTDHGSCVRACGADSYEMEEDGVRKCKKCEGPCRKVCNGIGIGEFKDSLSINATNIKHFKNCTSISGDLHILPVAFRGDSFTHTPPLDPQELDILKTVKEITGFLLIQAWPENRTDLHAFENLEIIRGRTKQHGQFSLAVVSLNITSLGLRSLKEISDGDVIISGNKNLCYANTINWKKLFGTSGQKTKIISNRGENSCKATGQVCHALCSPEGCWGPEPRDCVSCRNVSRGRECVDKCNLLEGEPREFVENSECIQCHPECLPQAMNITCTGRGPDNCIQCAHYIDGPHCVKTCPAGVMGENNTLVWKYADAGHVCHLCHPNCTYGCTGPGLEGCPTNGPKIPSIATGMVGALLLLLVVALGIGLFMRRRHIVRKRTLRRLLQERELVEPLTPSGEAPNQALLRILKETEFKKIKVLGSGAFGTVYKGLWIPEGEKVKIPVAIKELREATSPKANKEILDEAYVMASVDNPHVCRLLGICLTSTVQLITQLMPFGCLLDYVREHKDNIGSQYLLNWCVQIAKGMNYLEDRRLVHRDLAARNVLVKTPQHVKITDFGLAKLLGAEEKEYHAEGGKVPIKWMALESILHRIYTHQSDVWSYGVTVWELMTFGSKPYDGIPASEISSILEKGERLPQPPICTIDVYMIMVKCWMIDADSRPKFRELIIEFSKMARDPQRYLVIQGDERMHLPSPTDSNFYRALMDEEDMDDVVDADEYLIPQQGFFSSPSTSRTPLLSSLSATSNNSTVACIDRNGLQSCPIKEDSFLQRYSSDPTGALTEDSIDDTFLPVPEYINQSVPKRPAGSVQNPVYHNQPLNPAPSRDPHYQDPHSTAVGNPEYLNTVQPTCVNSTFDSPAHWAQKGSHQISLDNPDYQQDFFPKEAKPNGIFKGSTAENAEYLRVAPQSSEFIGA

[28] = biological target: Epidermal growth factor receptor (Mus musculus) (UniProt Q01279); assay: Inhibition of EGFR in mouse KC-0116 cells assessed as downregulation of AKT protein expression level incubated for 24 hrs by Western blotting analysis; type: cell-based
[29] = biological target: Epidermal growth factor receptor (Mus musculus) (UniProt Q01279); assay: Inhibition of EGFR in mouse KC-0122 cells assessed as downregulation of AKT protein expression level at 1 uM incubated for 24 hrs by Western blotting analysis; type: cell-based
[30] = biological target: Epidermal growth factor receptor (Mus musculus) (UniProt Q01279); assay: Inhibition of EGFR in mouse KC-0122 cells assessed as downregulation of ERK protein expression level at 1 uM incubated for 24 hrs by Western blotting analysis; type: cell-based
[31] = Toxicity in BALB/c mouse xenografted with mouse KC-0116 cells assessed as change in body weight at 10 mg/kg,po administrated once daily for 10 days; type: organism-based; conditions: in vivo, 240 h, time 10 day
NCI-H1975 = assay: Antiproliferative activity against human NCI-H1975 cells harboring EGFR L858R/T790M mutant assessed as inhibition of cell growth incubated for 72 hrs by MTT assay; type: functional, cell-based; conditions: NCI-H1975, 72 h
[32] = biological target: Epidermal growth factor receptor (Mus musculus) (UniProt Q01279); assay: Inhibition of EGFR in mouse KC-0116 cells assessed as downregulation of ERK protein expression level at 1 uM incubated for 24 hrs by Western blotting analysis; type: cell-based
[33] = biological target: Epidermal growth factor receptor (Mus musculus) (UniProt Q01279); assay: Inhibition of EGFR in mouse KC-0122 cells assessed as downregulation of AKT protein expression level incubated for 24 hrs by Western blotting analysis; type: cell-based
[34] = Induction of apoptosis in mouse KC-0116 cells assessed as early apoptotic cells at 1 uM incubated for 48 hrs by annexin V-FITC/ PI staining based flow cytometry (reference value: 8.09 %); type: functional
[35] = biological target: T1, Epidermal growth factor receptor; assay: Inhibition of recombinant EGFR Del19/T790M/C797S mutant (unknown origin) in presence of ATP by TR-FRET assay

inhibition [1]: Active
IC50 [11]: 113 nM
IC50 (HepG2): 1780 nM
inhibition [13]: Dose-Dependent Effect
inhibition [16]: Dose-Dependent Effect
inhibition [17]: Active
IC50 (HCC827): 160 nM
IC50 (A-431): 1990 nM
inhibition [19]: Dose-Dependent Effect
inhibition [23]: Active
inhibition [24]: Dose-Dependent Effect
IC50 [27]: 18 nM
inhibition [28]: Dose-Dependent Effect
inhibition [29]: Active
inhibition [30]: Active
IC50 (NCI-H1975): 1000 nM
inhibition [32]: Active
inhibition [33]: Dose-Dependent Effect
Structure (SMILES): CN(C)C1CCN(c2ccc(Nc3nccc(-c4cn(C)c5ccccc45)n3)cc2NS(C)(=O)=O)CC1
IC50 [2]: 160 nM
Activity [3]: 1.42%
Activity [4]: 91.42%
Activity [5]: 2.66%
Activity [6]: 0.08%
Activity [7]: 0.09%
viability at 1 µM [8]: 72.9%
Activity [9]: 0.17%
Activity (KC-0116 [10]): Active
viability at 10 µM [12]: 1.53%
Activity (KC-0116 [14]): Active
Activity [15]: 5.5%
inhibition in vivo at 10 mg/kg [18]: 28.4%
Activity [20]: 0.77%
viability at 0.1 µM [21]: 92.9%
IC50 [22]: 170 nM
inhibition in vivo at 40 mg/kg [25]: 77.6%
Activity [26]: Non-Toxic
Activity [31]: Non-Toxic
Activity [34]: 25.29%

Structure (SMILES): CC(C)n1c2cc(Nc3ccnc(-c4cnn(S(=O)(=O)C5CC5)c4)n3)ncc2c2c(OCC(F)(F)F)cc(N3CCN(C)CC3)cc21
IC50 [35]: 0.28 nM
